The values that follow come from ChEMBL document CHEMBL1134285, “Novel agouti-related-protein-based melanocortin-1 receptor antagonist” (J Med Chem, 2001).

Molecules are shown by their SMILES. Positions of bridges follow the written chain, without caps; N, C: chain ends. Residues, ends and D or L forms follow the SMILES beside them.

The experiment concerns the target Melanocortin receptor 4 (Mus musculus, UniProt P56450). As to the kind of experiment: Antagonist activity against mouse melanocortin-4 receptor (MC4R) using Schild analysis. The class given is functional. The note with it: for Kb: read-out: pA2 (converted).

Melanocortin receptor 4, sequence (P56450 whole entry): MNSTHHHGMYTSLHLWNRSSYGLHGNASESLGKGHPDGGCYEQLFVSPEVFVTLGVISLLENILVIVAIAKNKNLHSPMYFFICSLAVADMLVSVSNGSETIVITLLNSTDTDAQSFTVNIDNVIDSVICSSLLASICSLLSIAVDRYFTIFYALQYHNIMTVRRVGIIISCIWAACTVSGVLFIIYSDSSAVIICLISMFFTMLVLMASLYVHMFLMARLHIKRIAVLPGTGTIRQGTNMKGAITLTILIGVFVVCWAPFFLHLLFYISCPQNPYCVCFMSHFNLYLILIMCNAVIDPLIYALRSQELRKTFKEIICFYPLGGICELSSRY

By pA2 is commonly meant the negative logarithm of the molar antagonist concentration that doubles the agonist concentration needed for the same response. On to `C[C@@H]1NC(=O)[C@H](CC(N)=O)NC(=O)[C@H](Cc2ccccc2)NC(=O)[C@H](Cc2ccccc2)NC(=O)[C@H](CCCN=C(N)N)NC(=O)CC[C@H](NC(=O)[C@@H](N)Cc2ccc(O)cc2)C(=O)NC[C@@H](C(=O)N[C@@H](Cc2ccc(O)cc2)C(N)=O)NC(=O)[C@H](Cc2ccccc2)NC1=O`, for which the pA2 is given as 6.98. `C[C@@H]1NC(=O)[C@H](CC(N)=O)NC(=O)[C@H](Cc2ccccc2)NC(=O)[C@H](Cc2ccccc2)NC(=O)[C@H](CCCNC(=N)N)NC(=O)[C@@H](NC(=O)[C@@H](N)Cc2ccc(O)cc2)CC(=O)NC[C@@H](C(=O)N[C@@H](Cc2ccc(O)cc2)C(N)=O)NC(=O)[C@H](Cc2ccccc2)NC1=O`: the Kb was 479 nM. On the same count and under the same terms, to `C[C@@H]1NC(=O)[C@H](CC(N)=O)NC(=O)[C@H](Cc2ccccc2)NC(=O)[C@H](Cc2ccccc2)NC(=O)[C@H](CCCNC(=N)N)NC(=O)[C@@H](NC(=O)[C@@H](N)Cc2ccc(O)cc2)CSSC[C@@H](C(=O)N[C@@H](Cc2ccc(O)cc2)C(N)=O)NC(=O)[C@H](Cc2ccccc2)NC1=O` (H-YCRFFNAFCY-NH2; disulfide 2-9) belongs 155 nM.
